Source: publication doi:10.1101/2025.11.04.686469, “Discovery of Host-Directed Small Molecules with Broad Anti-Leishmanial Efficacy” (bioRxiv, 2025)
Where two headings read alike, the source gives them in different places.

Columns and labels:
[1] = test system: intracellular L. donovani amastigotes; test: Image-based (Giemsa staining) evaluation of intracellular anti-leishmanial activity in bone marrow derived macrophages; format: cell-based, Leishmania donovani; settings: Leishmania donovani, Macrophage
Protocol: Bone marrow derived macrophages (BMDMs) were isolated from BALB/c mice and cultured as previously described. […] Completely differentiated BMDMs are obtained after 7 days of culture with media change every 2 days. Harvested cells were seeded onto 10 mm glass cover slips at 5 x 10^5 cells/ well of a 24 well plate in DMEM media (without LCM) and allowed to adhere overnight. […] After infection, cells were washed three times with fresh media to remove extracellular promastigotes and treated with compounds for a 72-hour incubation. BMDM cells were then washed with phosphate buffered saline, fixed with ice-cold methanol, and stained with Giemsa (5% v/v in water). The cover slips with stained cells are mounted onto glass slides and imaged on EVOS XL (100X, Thermo Fisher Scientific). Leishmania amastigotes per 100 macrophages were determined in a blinded manner.

[2] = test system: intracellular L. mexicana amastigotes; test: microbe, parasite or virus in culture; format: cell-based, Leishmania mexicana; settings: bone marrow derived macrophages, Giemsa staining
Protocol: Bone marrow derived macrophages (BMDMs) were isolated from BALB/c mice and cultured as previously described. Briefly, bone marrow was harvested from long bones of mice and the isolated cells were seeded at a concentration of 2 x 10^6 cells/mL in petri dishes with RPMI media supplemented with 10% FBS, 1% Penn-Strep and 10% L929 conditioned media (LCM). Completely differentiated BMDMs are obtained after 7 days of culture with media change every 2 days. Harvested cells were seeded onto 10 mm glass cover slips at 5 x 10^5 cells/ well of a 24 well plate in DMEM media (without LCM) and allowed to adhere overnight. BMDM cells are then infected overnight with LV82 L. donovani or L. mexicana (NR-51210) at a multiplicity of infection of 10. After infection, cells were washed three times with fresh media to remove extracellular promastigotes and treated with compounds for a 72-hour incubation. BMDM cells were then washed with phosphate buffered saline, fixed with ice-cold methanol, and stained with Giemsa (5% v/v in water). The cover slips with stained cells are mounted onto glass slides and imaged on EVOS XL (100X, Thermo Fisher Scientific). Leishmania amastigotes per 100 macrophages were determined in a blinded manner.

O=C(CNCc1cccc(F)c1)Nc1ccc(-n2cc(C(F)(F)F)nc2-c2ccc(-c3ccc(C(F)(F)F)cc3)cc2)cc1 [Compound 197]
IC50 ([1]; 72 h, Giemsa staining, 72-hour incubation, read-out: Intracellular L. donovani amastigotes IC50): 1100 nM | IC50 ([1]; Giemsa staining (Table 3), read-out: L. donovani Intracellular amastigotes IC50): < 2000 nM | IC50 ([2]; Leishmania mexicana, Macrophage): < 2000 nM | IC50 [2]: 1700 nM
